In ChEMBL document CHEMBL1201862, “PubChem BioAssay data set” (2004):
Activity calls are given as the source filed them.

Assays:
[1] = target: T1, Voltage-gated N-type calcium channel alpha-1B subunit/Amyloid beta A4 precursor protein-binding family A member 1 (Homo sapiens, UniProt Q00975+Q02410); type: protein assay
[2] = target: T2, Long-chain-fatty-acid--AMP ligase FadD28 (Mycobacterium tuberculosis, UniProt P9WQ59); test: Fluorescence polarization aasay to screen for inhibitors that compete for the binding of FadD28 to a bisubstrate Measured in Biochemical System Using Plate Reader - 2147-01_Inhibitor_Dose_CherryPick_Activity.; type: functional, Mycobacterium tuberculosis H37Rv
T2 sequence (P9WQ59 whole entry): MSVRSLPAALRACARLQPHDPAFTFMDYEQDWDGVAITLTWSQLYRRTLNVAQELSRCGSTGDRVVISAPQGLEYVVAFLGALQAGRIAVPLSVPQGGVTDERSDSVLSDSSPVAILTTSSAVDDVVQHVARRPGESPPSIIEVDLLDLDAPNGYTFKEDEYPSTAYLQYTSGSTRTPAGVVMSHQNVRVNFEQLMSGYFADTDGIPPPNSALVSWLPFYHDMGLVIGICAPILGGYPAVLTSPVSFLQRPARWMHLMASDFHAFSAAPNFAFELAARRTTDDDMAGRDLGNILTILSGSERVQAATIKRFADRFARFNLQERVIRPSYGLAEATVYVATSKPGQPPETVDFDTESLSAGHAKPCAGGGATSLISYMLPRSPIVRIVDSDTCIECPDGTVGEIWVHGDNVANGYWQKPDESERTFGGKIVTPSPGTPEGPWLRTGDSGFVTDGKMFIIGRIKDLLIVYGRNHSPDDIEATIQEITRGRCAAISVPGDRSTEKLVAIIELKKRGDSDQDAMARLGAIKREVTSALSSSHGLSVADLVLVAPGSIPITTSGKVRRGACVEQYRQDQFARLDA

[3] = target: T1, Voltage-gated N-type calcium channel alpha-1B subunit/Amyloid beta A4 precursor protein-binding family A member 1; type: protein assay; remark: listed apart in the source
Aminopeptidase N = target: T3, Aminopeptidase N (Plasmodium falciparum FcB1/Columbia, UniProt O96935); test: P. falciparum M1AAP inhibitors, biochemical, fluorogenic H-Leu-NHMec substrate, 1536-well (AID 1445); parameters: species or system Plasmodium falciparum 3D7, 3D7
T3 sequence (O96935 whole entry): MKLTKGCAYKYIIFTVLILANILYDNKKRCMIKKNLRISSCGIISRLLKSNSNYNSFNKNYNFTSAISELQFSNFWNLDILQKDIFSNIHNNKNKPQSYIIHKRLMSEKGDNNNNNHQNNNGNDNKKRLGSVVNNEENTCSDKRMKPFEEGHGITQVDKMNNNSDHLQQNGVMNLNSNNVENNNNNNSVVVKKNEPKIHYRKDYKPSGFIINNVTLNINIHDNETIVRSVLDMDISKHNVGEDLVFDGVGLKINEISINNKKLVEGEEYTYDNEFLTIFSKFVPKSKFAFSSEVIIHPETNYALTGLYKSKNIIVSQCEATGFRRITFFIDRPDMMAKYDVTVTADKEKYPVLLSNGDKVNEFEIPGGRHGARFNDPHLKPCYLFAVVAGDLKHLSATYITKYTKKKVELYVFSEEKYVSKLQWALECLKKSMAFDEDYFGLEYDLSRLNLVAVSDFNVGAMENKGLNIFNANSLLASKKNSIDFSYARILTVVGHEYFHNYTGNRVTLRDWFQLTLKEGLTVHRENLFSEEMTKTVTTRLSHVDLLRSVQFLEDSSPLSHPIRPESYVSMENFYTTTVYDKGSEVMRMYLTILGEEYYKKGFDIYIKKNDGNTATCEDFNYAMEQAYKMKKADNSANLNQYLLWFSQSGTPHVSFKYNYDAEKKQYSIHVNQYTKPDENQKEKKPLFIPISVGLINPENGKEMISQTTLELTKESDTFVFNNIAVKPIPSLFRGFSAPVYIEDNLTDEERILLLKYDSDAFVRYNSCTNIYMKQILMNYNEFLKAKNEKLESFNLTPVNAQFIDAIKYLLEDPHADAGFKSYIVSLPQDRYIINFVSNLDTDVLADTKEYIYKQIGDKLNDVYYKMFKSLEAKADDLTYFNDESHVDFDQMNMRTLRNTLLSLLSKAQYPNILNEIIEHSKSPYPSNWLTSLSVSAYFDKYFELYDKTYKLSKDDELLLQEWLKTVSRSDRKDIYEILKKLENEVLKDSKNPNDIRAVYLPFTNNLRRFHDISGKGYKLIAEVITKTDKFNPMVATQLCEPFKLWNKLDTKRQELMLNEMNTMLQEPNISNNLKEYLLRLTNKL

[4] = cytotoxicity in KRAS-transformed pancreatic duct cells, primary screen, cell-based, fluorescence, HTS (AID 431); type: functional; conditions: Homo sapiens;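 note: cell line used: HPDE-C7K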
[5] = cytotoxicity in HPDE-C7 cells, cell-based, fluorescence, HTS (AID 430); type: functional; conditions: Homo sapiens
Leucine aminopeptidase = target: T4, Leucine aminopeptidase (Plasmodium falciparum 3D7, UniProt Q8IL11); test: P. falciparum M17LAP inhibitors, primary screen, biochemical, fluorogenic H-Leu-NHMec substrate, 1536-well (AID 1619); type: functional
T4 sequence (Q8IL11 whole entry): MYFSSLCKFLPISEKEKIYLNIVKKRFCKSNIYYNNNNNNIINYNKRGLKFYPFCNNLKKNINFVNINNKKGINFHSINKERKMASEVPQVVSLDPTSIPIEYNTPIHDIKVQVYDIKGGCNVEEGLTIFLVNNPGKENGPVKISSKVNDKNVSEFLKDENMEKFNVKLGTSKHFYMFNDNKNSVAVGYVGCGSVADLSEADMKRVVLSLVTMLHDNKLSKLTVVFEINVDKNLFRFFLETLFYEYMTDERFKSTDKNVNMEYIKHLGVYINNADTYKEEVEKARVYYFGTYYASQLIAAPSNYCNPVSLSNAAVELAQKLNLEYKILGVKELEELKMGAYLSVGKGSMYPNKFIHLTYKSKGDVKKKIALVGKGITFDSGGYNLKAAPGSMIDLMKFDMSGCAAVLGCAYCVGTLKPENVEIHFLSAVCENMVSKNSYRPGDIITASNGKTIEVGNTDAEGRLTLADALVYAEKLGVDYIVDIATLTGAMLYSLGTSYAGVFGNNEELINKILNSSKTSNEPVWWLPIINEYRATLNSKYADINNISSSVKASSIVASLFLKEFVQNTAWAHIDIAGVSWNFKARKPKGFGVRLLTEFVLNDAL

Nonstructural protein 1 = Nonstructural protein 1 (Influenza A virus, UniProt Q194T2); type: functional, Influenza A virus (A/California/07/2009(H1N1))
Streptococcus = test: Group A Streptococcus viability loss, dose response, counter-screen for streptokinase expression inhibitor project, luminescence, BacTiterGlo (AID 1915); type: functional, organism-based;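 note: potency for reduction of bacterial viability or growth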
[6] = system: Streptococcus sp. 'group A'; test: growth inhibition of control SK(-) GAS strain, dose response, counter-screen for streptokinase expression inhibitor project, luminescence, kanamycin, BacTiterGlo, confirmation (AID 1900); type: functional, organism-based
INS1 = test: beta cell apoptosis inhibitors, cytokine rescue, dose response, luminescence, retest (AID 449756); type: functional, cell-based; conditions: Rattus norvegicus;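 note: cell death triggered by IL-1 beta plus TNF-alpha plus IFN-gamma mixture; protective hits raise ATP signal compared with cytokine alone wells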
[7] = cytotoxicity in HEK-293T cells, dose response, cytotoxicity control for BCR NF-kB inhibitor project, luminescence, B-cell screen hits (AID 489021); type: functional, cell-based;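 note: HEK-293T cells carrying an NF-kB luciferase reporter; cells exposed to compound for about 14 hours before viability readout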
[8] = target: T5, Tyrosine-protein phosphatase non-receptor type 7 (Homo sapiens, UniProt P35236); test: redox-dependent HePTP inhibition, mechanism study, biochemical, fluorescence (AID 2068); type: functional
T5 sequence (P35236 whole entry): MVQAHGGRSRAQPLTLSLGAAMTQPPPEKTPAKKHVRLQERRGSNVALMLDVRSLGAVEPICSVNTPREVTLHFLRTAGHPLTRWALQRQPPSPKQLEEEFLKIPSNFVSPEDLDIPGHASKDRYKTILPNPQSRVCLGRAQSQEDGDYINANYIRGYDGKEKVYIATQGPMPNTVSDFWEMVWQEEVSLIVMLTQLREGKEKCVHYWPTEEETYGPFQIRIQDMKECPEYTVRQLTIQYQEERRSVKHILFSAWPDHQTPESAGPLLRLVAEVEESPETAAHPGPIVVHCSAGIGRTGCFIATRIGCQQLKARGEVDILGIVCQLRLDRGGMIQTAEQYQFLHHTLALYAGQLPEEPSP

[9] = P. falciparum Dd2 growth inhibitors, dose response, SYBR Green, cherry-picked samples (AID 1159567); type: functional, cell-based
[10] = HepG2 cell cytotoxicity, dose response, cytotoxicity control, cherry-picked samples (AID 1159577); type: functional, cell-based
[11] = NIH-3T3 fibroblast cytotoxicity, dose response, cytotoxicity control, cell-based, fluorescence, Alamar Blue, secondary assay (AID 2327); type: functional;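 note: NIH-3T3 mouse fibroblasts cultured with fluconazole at 8 µg/mL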
[12] = C. albicans growth with fluconazole, confirmation, fluorescence, retest (AID 2467); type: functional, cell-based
[13] = cytotoxicity toward NIH3T3 fibroblasts, dose response, counter-screen, cell-based, ATP luminescence, mouse fibroblasts (AID 2010); type: functional;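 note: cells exposed to compound for about 90 hours before reading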
[14] = inhibitors of intracellular T. cruzi replication, confirmation, NIH3T3 host cells, beta-gal luminescence (AID 2044); type: functional, cell-based;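 note: intracellular parasites grown in NIH/3T3 mouse fibroblasts as host cells; luminescent beta-galactosidase reporter signal from transgenic T. cruzi replicating inside host cells; inhibitors lower the luminescence signal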
[15] = cytotoxicity in HEK-293T cells, dose response, cytotoxicity control for TCR NF-kB inhibitor project, luminescence, T-cell screen hits (AID 489026); type: functional, cell-based;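 note: cells exposed to compound about 14 hours before the viability readout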

T1 sequence (Q00975 whole entry): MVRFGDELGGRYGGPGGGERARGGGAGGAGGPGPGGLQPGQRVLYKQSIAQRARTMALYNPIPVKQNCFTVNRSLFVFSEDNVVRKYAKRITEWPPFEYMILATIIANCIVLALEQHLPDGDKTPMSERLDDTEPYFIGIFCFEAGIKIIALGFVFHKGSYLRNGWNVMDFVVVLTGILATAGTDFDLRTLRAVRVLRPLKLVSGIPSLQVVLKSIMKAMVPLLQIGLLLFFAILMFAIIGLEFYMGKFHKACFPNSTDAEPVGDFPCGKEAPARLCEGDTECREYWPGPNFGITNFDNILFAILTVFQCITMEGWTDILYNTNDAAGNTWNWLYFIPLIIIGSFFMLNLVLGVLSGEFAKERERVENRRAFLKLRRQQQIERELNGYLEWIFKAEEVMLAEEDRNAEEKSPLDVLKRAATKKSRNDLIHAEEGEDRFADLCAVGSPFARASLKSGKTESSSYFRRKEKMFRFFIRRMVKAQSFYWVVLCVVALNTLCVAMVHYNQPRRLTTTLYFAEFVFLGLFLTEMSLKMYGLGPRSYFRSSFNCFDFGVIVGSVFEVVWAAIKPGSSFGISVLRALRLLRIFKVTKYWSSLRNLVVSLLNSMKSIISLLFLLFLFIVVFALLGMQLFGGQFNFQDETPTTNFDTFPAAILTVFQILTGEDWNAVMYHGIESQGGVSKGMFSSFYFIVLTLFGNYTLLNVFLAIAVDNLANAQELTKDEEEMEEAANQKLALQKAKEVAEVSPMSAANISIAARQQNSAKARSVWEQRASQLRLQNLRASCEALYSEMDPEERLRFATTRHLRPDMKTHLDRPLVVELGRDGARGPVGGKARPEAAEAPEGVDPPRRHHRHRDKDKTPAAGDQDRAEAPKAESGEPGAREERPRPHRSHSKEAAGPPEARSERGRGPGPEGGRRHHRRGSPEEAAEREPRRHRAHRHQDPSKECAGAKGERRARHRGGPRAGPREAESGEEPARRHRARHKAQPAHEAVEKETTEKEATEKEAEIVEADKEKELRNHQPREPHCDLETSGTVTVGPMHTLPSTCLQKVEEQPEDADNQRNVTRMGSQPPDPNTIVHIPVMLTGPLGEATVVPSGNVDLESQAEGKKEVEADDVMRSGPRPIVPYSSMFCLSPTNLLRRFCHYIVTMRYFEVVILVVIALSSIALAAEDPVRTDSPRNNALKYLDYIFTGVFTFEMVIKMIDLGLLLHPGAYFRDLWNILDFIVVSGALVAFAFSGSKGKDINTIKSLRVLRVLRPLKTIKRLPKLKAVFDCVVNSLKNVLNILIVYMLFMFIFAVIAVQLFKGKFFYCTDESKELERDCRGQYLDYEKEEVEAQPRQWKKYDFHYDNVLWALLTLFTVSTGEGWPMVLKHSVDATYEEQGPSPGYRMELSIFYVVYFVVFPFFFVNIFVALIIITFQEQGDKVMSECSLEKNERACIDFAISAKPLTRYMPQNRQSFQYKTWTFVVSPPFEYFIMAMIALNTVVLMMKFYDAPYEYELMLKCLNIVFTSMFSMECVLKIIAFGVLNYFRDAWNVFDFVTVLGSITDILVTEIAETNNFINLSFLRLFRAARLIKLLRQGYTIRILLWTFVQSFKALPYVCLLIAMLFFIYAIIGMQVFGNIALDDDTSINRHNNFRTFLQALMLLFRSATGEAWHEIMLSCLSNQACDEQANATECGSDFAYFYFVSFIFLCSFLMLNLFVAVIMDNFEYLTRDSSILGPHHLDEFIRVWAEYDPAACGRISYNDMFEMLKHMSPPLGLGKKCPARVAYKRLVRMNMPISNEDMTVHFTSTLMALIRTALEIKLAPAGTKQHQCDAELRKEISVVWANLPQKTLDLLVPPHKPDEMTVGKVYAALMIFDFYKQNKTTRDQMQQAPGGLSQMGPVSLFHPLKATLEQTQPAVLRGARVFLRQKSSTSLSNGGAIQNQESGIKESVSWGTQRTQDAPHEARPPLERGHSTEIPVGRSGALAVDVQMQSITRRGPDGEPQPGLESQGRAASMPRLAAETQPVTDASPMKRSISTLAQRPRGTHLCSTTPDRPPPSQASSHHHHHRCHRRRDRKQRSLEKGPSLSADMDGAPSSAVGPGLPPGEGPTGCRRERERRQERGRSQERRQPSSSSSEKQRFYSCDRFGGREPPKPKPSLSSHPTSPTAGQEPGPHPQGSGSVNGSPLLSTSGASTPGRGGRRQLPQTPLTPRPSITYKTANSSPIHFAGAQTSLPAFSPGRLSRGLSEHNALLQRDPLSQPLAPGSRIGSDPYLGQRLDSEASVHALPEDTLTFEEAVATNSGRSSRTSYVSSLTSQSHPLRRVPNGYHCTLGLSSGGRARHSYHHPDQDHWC
T1 sequence (Q02410 whole entry): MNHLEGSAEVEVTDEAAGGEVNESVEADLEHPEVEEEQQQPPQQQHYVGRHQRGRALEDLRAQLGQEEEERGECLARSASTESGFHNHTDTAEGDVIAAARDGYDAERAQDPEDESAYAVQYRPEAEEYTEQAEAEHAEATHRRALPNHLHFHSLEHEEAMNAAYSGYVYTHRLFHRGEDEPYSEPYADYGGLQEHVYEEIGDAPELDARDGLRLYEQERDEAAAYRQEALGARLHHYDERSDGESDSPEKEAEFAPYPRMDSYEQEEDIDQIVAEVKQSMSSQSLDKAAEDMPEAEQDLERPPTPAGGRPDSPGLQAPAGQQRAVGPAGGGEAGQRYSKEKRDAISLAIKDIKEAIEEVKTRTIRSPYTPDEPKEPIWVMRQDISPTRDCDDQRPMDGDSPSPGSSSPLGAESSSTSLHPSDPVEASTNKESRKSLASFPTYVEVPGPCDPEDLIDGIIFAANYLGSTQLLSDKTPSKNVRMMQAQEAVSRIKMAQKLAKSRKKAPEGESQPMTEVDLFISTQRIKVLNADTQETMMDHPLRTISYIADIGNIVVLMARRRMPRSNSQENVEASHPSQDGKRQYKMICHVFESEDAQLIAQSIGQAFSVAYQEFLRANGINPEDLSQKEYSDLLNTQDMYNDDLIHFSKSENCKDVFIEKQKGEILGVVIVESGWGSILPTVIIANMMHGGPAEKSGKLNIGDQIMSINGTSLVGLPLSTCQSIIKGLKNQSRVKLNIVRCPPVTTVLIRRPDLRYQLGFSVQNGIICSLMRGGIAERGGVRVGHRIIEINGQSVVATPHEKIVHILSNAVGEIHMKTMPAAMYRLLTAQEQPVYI
Nonstructural protein 1, sequence (Q194T2 whole entry): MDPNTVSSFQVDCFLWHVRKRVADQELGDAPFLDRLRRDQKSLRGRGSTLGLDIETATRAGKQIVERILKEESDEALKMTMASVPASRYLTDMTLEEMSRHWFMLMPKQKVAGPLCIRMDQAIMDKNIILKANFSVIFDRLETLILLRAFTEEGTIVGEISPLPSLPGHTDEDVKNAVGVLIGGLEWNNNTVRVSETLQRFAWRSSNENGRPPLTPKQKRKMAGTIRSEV

Q: For `COC(=O)c1cc(NC(=O)c2ccccc2)c(=O)oc1/C=C/Nc1ccc(Oc2ccccc2)cc1`, which IC50 [1] is on record?
A: > 50 µM (inactive)

Q: And the AC50 [2]?
A: 60.3 µM (active)

Q: What about the IC50 [3] of the same molecule?
A: 6.82 µM (active)

Q: For `Cc1cc(=O)oc2c(CN3CCCCC3)c(O)c(Cl)cc12`, which IC50 (Aminopeptidase N) is on record?
A: 59.6 µM (active)

Q: For `Cc1c(N2C(=O)C(O)=C(C(=O)c3ccc(Cl)cc3)C2c2ccccc2)c(=O)n(-c2ccccc2)n1C` (stereo not drawn), which IC50 (Aminopeptidase N) is on record?
A: 62.1 µM (active)

Q: Which results are given for `CN(C)/C=C/C(=O)c1nnn(C2CCCCC2)c1NC1CCCCC1`?
A: EC50 [4]: > 20 µM (not active); EC50 [5]: > 20 µM (not active)

Q: Which EC50 [4] does the source give for `O=C1c2n[nH]c(-c3ccccc3O)c2C(c2ccccc2F)N1Cc1ccco1` (stereo not drawn) here?
A: 15 µM (active)

Q: And the EC50 [5]?
A: 13.1 µM (active)

Q: With `COc1ccc(NC(=O)Cc2c(F)cccc2Cl)cc1` as the molecule, how does the IC50 (Leucine aminopeptidase) read?
A: 13.6 µM (active)

Q: Which IC50 (Nonstructural protein 1) does the source give for `Cc1cccnc1NCc1ccc(O)c2ncccc12` here?
A: 14.1 µM (active)

Q: And the EC50 [4]?
A: 10 µM (active)

Q: And the EC50 [5]?
A: 13.6 µM (active)

Q: What about the EC50 (Streptococcus) of the same molecule?
A: 3.33 µM (active)

Q: What about the EC50 [6] of the same molecule?
A: 2.9 µM (active)

Q: With `O=C(Nc1ccc(-n2ccnc2P(=O)(O)c2ccccc2)cc1)c1ccccc1Br` as the molecule, how does the IC50 (Aminopeptidase N) read?
A: 11.2 µM (active)

Q: For `CCOC(=O)c1nnn2c1nc(Nc1cccc(C(F)(F)F)c1)c1ccccc12`, which IC50 [1] is on record?
A: > 50 µM (inactive)

Q: What about the IC50 [3] of the same molecule?
A: 25.1 µM (active)

Q: For `Cc1c(C)c2cc(Cl)c(O)c(CN3CCCC(C)C3)c2oc1=O` (stereo not drawn), which IC50 (Aminopeptidase N) is on record?
A: 43.1 µM (active)

Q: What does the source list for `O=C(NNC(=O)c1ccccc1O)c1ccc(Cl)c(S(=O)(=O)N2CCc3ccccc32)c1`?
A: AC50 (INS1): 4.28 µM (active); IC50 [7]: 77.9 µM (inactive)

Q: For `COc1ccc(-c2[nH]ncc2/C=C(\C#N)C(=O)NC2CC2)cc1`, which IC50 (Leucine aminopeptidase) is on record?
A: 36.9 µM (active)

Q: Which IC50 (Leucine aminopeptidase) does the source give for `O=C(CSc1ccccc1C(=O)O)NCc1ccc(Cl)cc1` here?
A: 17.4 µM (active)

Q: For `CCCCCCCCc1nnc(SC(C)C(=O)O)[nH]1` (stereo not drawn), which IC50 (Leucine aminopeptidase) is on record?
A: 5.32 µM (active)

Q: For `O=C(CCN1C(=O)/C(=C/c2ccc(Cl)cc2)SC1=S)NC1C=CS(=O)(=O)C1` (stereo not drawn), which IC50 [1] is on record?
A: > 50 µM (inactive)

Q: What about the IC50 [3] of the same molecule?
A: 8.45 µM (active)

Q: For `O=C(Nc1ccc2nc(-c3ccco3)c(-c3ccco3)nc2c1)N1CCSCC1`, which IC50 [8] is on record?
A: 3.36 µM (active)

Q: With `COc1ccc(C(=O)N/N=C/c2ccc(OC)c(CN3CCCc4ccccc43)c2)cc1` as the molecule, how does the IC50 [7] read?
A: > 80 µM (inactive)

Q: With `N#C[C@H]1[C@H](c2ccc(C#CC3CCCCC3)cc2)[C@@H](CO)N1C(=O)Nc1ccc(F)cc1` as the molecule, how does the AC50 [9] read?
A: 4.35 µM (active)

Q: What about the AC50 [10] of the same molecule?
A: 9.27 µM (active)

Q: For `C[C@@H]1CN([C@H](C)CO)C(=O)c2c(c3ccccc3n2C)-c2ccccc2CO[C@@H]1CN(C)Cc1cccc(O)c1`, which AC50 [9] is on record?
A: 4.04 µM (active)

Q: What about the AC50 [10] of the same molecule?
A: 17.2 µM (active)

Q: Which EC50 (cells) does the source give for `CCCCCCCn1c2c(c(=N)c3ccccc31)CCC2` here?
A: < 0.004 µM (active)

Q: And the EC50 [11]?
A: > 160 µM (inactive)

Q: And the EC50 [12]?
A: 4.4 µM (active)

Q: What about the EC50 [13] of the same molecule?
A: 25.2 µM (active)

Q: And the EC50 [14]?
A: < 0.1 µM (active)

Q: What about the IC50 [15] of the same molecule?
A: 72.2 µM (inactive)
